The nature of the first series: Distribution coefficient of octanol and phosphate buffered saline at pH 7.4. The series is classed as physicochemical. Particulars: read-out: Log Doct/PBS.
Regarding `O=C(O)c1ccc(Cn2ccnc2)cc1`, the logD was -2.1.
`O=S(=O)(O)c1ccc(Cn2cnc3ccccc32)cc1`: the logD stood at 1.78.
As to `O=C(O)c1cccc(Cn2cnc3ccccc32)c1`, the logD is -0.72.
Still for that read-out and setting: in the case of `Nc1cccc(Cn2cnc3ccccc32)c1` it was 1.92; in that of `CS(=O)(=O)Nc1cccc(Cn2cnc3ccccc32)c1`, 2.08.
In the case of `N=C(N)c1cccc(Cc2ncccn2)c1`, the logD is -1.03.

The next series is described as follows: Permeability directional ratio (PB-A/PA-B) in Caco-2 cell. It counts as ADME, cell-based. Particulars: human, read-out: PDR. On the technique in general: Passage across Caco-2 layers is used to estimate intestinal permeability.
With `O=C(O)c1ccc(Cn2ccnc2)cc1`, the efflux ratio came to 1.
Turning to `O=S(=O)(O)c1ccc(Cn2cnc3ccccc32)cc1`, the efflux ratio was 7.
With `O=C(O)c1cccc(Cn2cnc3ccccc32)c1`, the efflux ratio worked out at 3.
Regarding `c1ccc2c(c1)ncn2Cc1ccc(-c2nn[nH]n2)cc1`, the efflux ratio was determined as 129.
With `c1cnc(Cc2cccc(-c3nn[nH]n3)c2)nc1`, the efflux ratio amounted to 20.
As to `c1ccc(-c2nn[nH]n2)c(Cn2cnc3ccccc32)c1`, the efflux ratio was found to be 180.
`N=C(N)c1cccc(Cc2ncccn2)c1`: the efflux ratio worked out at 3.
Turning to `c1cc(Cn2cnc3ccccc32)cc(-c2nn[nH]n2)c1`, the efflux ratio stood at 145.

A further series is described as follows: Partition coefficient (logD7.4) measured using octanol and PBS at pH7.4. The series is classed as physicochemical. Particulars: pH 7.4, read-out: LogD7.4.
In the case of `NS(=O)(=O)c1ccc(Cn2cnc3ccccc32)cc1`, the logD worked out at 1.04.
For `NCc1cccc(Cn2cccn2)c1`, the logD is -0.77.
Same read-out and setting: in the case of `NC(=O)c1cccc(Cc2ncccn2)c1` it was 0.28; in that of `O=C(O)c1ccc(Cn2cccn2)cc1`, -1.65.
With `N#Cc1cccc(Cn2cccn2)c1`, the logD is 1.74.
For `N#Cc1cccc(Cc2ncccn2)c1`, the logD amounted to 1.46.
As to `NC(=O)c1cccc(Cn2cccn2)c1`, the logD came out at 0.71.
For the molecule `O=C(O)c1ccc(Cc2ncccn2)cc1`, the logD is -2.2.
For the molecule `NCc1cccc(Cn2cnc3ccccc32)c1`, the logD was 0.21.
As to `NC(=O)c1cccc(Cn2ccnc2)c1`, the logD is -0.01.
Regarding `N#Cc1cccc(Cn2ccnc2)c1`, the logD stood at 1.01.
Take `N#Cc1cccc(Cn2cnc3ccccc32)c1`: the logD was 2.47.
As to `O=C(O)c1cccc(Cn2cccn2)c1`, the logD was -1.62.
Still for that read-out and setting: the same measure for `O=C(O)Cc1ccc(Cn2ccnc2)cc1`: -2.37.
With `c1ccc(Cn2cnc3ccccc32)cc1`, the logD was found to be 2.91.
On to `c1cnc(Cc2cccc(-c3nn[nH]n3)c2)nc1`, for which the logD is -1.28.
In the case of `O=C(O)Cc1ccc(Cn2cccn2)cc1`, the logD is -1.8.
As to `O=C(O)c1cccc(Cc2ncccn2)c1`, the logD is -1.98.
For `NCc1cccc(Cc2ncccn2)c1`, the logD was -1.11.
With `NC(=O)c1cccc(Cn2cnc3ccccc32)c1`, the logD came to 1.7.
On the same count and under the same terms, the same measure for `O=C(O)Cc1ccc(Cn2cnc3ccccc32)cc1`: -1.13; for `c1cc(Cn2cnc3ccccc32)cc(-c2nn[nH]n2)c1`: 0.27.
As to `O=C(O)c1ccc(Cn2cnc3ccccc32)cc1`, the logD was -0.61.
Still for that read-out and setting: in the case of `c1ccc(Cn2ccnc2)cc1` [BENZYLIMIDAZOLE] it was 1.78.
